# Measured values published in patent publication US6525001B1, “Substituted pyrimidine and pyridine herbicides” (Mid-American Commercialization Corporation, priority 1997, dated 2003).
# How the values were obtained:
# Test in all cases: Test B pre-/postemergence
# Format in all cases: in vivo
# Set-up in all cases: key: 0 is no effect; 10 is complete control
# [1] = tested on: cocklebur (Xanthium strumarium)
# Procedure, shortened: (§1)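 Seeds were planted and sprayed preemergence, while plants at 2 to 18 cm (1- to 4-leaf stage) were sprayed postemergence at the same time, with test chemical in a non-phytotoxic solvent mixture containing surfactant. After twelve to sixteen days in a greenhouse, injury was rated visually against untreated controls on a 0–10 scale.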
# [2] = tested on: momingglory (Ipomoea hederacea)
# Procedure, shortened: as §1
# [3] = tested on: wheat (Triticum aestivum)
# Procedure, shortened: as §1
# [4] = tested on: bedstraw (Galium aparine)
# Procedure, shortened: as §1
# [5] = tested on: blackgrass (Alopecurus myosuroides)
# Procedure, shortened: as §1
# [6] = tested on: corn (Zea mays)
# Procedure, shortened: as §1
# [7] = tested on: sugar beet (Beta vulgaris)
# Procedure, shortened: as §1
# [8] = tested on: crabgrass (Digitaria sanguinalis)
# Procedure, shortened: as §1
# [9] = tested on: purple nutsedge (Cyperus rotundus)
# Procedure, shortened: as §1
# [10] = tested on: pigweed (Amaranthus retroflexus)
# Procedure, shortened: as §1
# [11] = tested on: velvetleaf (Abutilon theophrasti)
# Procedure, shortened: as §1
# [12] = tested on: wild oat (Avena fatua)
# Procedure, shortened: as §1
# [13] = tested on: giant foxtail (Setaria faberii)
# Procedure, shortened: as §1
# [14] = tested on: broadleaf signalgrass (Brachiaria decumbens)
# Procedure, shortened: as §1
# [15] = Preemergence, Rate 62 g/ha, scale of 0 to 10
smiles,measurement,setting,value
Cc1cnc(-n2cnc(C(F)(F)F)n2)nc1C(=O)c1cccc(C(F)(F)F)c1 [Compound 67],Cocklebur plant response rating,"[1]; Rate 62 g/ha, Postemergence",7
same,Cocklebur plant response rating,"[1]; Rate 125 g/ha, Postemergence",7
same,"Plant response rating, Cocklebur","[1]; Rate 250 g/ha, Postemergence",8
same,"Plant response rating, Cocklebur","[1]; Rate 250 g/ha, Preemergence",2
same,"Plant response rating, Cocklebur","[1]; Rate 500 g/ha, Postemergence",9
same,"Plant response rating, Cocklebur","[1]; Rate 500 g/ha, Preemergence",5
same,"Plant response rating, Morningglory",[2]; [15],8
same,Morningglory plant response rating,"[2]; Rate 62 g/ha, Postemergence",7
same,Morningglory plant response rating,"[2]; Rate 125 g/ha, Postemergence",7
same,"Plant response rating, Morningglory","[2]; Rate 125 g/ha, Preemergence",10
same,"Plant response rating, Morningglory","[2]; Rate 250 g/ha, Postemergence",10
same,"Plant response rating, Morningglory","[2]; Rate 250 g/ha, Preemergence",10
same,"Plant response rating, Morningglory","[2]; Rate 500 g/ha, Postemergence",10
same,"Plant response rating, Morningglory","[2]; Rate 500 g/ha, Preemergence",10
same,"Plant response rating, Wheat",[3]; [15],3
same,Wheat plant response rating,"[3]; Rate 62 g/ha, Postemergence",3
same,Wheat plant response rating,"[3]; Rate 125 g/ha, Postemergence",4
same,"Plant response rating, Wheat","[3]; Rate 125 g/ha, Preemergence",3
same,"Plant response rating, Wheat","[3]; Rate 250 g/ha, Postemergence",5
same,"Plant response rating, Wheat","[3]; Rate 250 g/ha, Preemergence",3
same,"Plant response rating, Wheat","[3]; Rate 500 g/ha, Postemergence",6
same,"Plant response rating, Wheat","[3]; Rate 500 g/ha, Preemergence",4
same,"Plant response rating, Bedstraw",[4]; [15],7
same,Bedstraw plant response rating,"[4]; Rate 62 g/ha, Postemergence",9
same,Bedstraw plant response rating,"[4]; Rate 125 g/ha, Postemergence",9
same,"Plant response rating, Bedstraw","[4]; Rate 125 g/ha, Preemergence",9
same,"Plant response rating, Bedstraw","[4]; Rate 250 g/ha, Postemergence",10
same,"Plant response rating, Bedstraw","[4]; Rate 250 g/ha, Preemergence",9
same,"Plant response rating, Bedstraw","[4]; Rate 500 g/ha, Postemergence",10
same,"Plant response rating, Bedstraw","[4]; Rate 500 g/ha, Preemergence",10
same,"Plant response rating, Blackgrass",[5]; [15],3
same,Blackgrass plant response rating,"[5]; Rate 62 g/ha, Postemergence",5
same,Blackgrass plant response rating,"[5]; Rate 125 g/ha, Postemergence",8
same,"Plant response rating, Blackgrass","[5]; Rate 125 g/ha, Preemergence",4
same,"Plant response rating, Blackgrass","[5]; Rate 250 g/ha, Postemergence",9
same,"Plant response rating, Blackgrass","[5]; Rate 250 g/ha, Preemergence",8
same,"Plant response rating, Blackgrass","[5]; Rate 500 g/ha, Postemergence",10
same,"Plant response rating, Blackgrass","[5]; Rate 500 g/ha, Preemergence",9
same,"Plant response rating, Corn",[6]; [15],4
same,Corn plant response rating,"[6]; Rate 62 g/ha, Postemergence",4
same,Corn plant response rating,"[6]; Rate 125 g/ha, Postemergence",5
same,"Plant response rating, Corn","[6]; Rate 125 g/ha, Preemergence",4
same,"Plant response rating, Corn","[6]; Rate 250 g/ha, Postemergence",6
same,"Plant response rating, Corn","[6]; Rate 250 g/ha, Preemergence",4
same,"Plant response rating, Corn","[6]; Rate 500 g/ha, Postemergence",7
same,"Plant response rating, Corn","[6]; Rate 500 g/ha, Preemergence",7
same,"Plant response rating, Sugarbeets",[7]; [15],9
same,Sugarbeets plant response rating,"[7]; Rate 62 g/ha, Postemergence",9
same,Sugarbeets plant response rating,"[7]; Rate 125 g/ha, Postemergence",9
same,"Plant response rating, Sugarbeets","[7]; Rate 125 g/ha, Preemergence",10
same,"Plant response rating, Sugarbeets","[7]; Rate 250 g/ha, Postemergence",9
same,"Plant response rating, Sugarbeets","[7]; Rate 250 g/ha, Preemergence",10
same,"Plant response rating, Sugarbeets","[7]; Rate 500 g/ha, Postemergence",9
same,"Plant response rating, Sugarbeets","[7]; Rate 500 g/ha, Preemergence",10
same,"Plant response rating, Crabgrass",[8]; [15],6
same,Crabgrass plant response rating,"[8]; Rate 62 g/ha, Postemergence",7
same,Crabgrass plant response rating,"[8]; Rate 125 g/ha, Postemergence",9
same,"Plant response rating, Crabgrass","[8]; Rate 125 g/ha, Preemergence",9
same,"Plant response rating, Crabgrass","[8]; Rate 250 g/ha, Postemergence",10
same,"Plant response rating, Crabgrass","[8]; Rate 250 g/ha, Preemergence",10
same,"Plant response rating, Crabgrass","[8]; Rate 500 g/ha, Postemergence",10
same,"Plant response rating, Crabgrass","[8]; Rate 500 g/ha, Preemergence",10
same,Nutsedge plant response rating,"[9]; Rate 62 g/ha, Postemergence",0
same,Nutsedge plant response rating,"[9]; Rate 125 g/ha, Postemergence",2
same,"Plant response rating, Nutsedge","[9]; Rate 250 g/ha, Postemergence",4
same,"Plant response rating, Nutsedge","[9]; Rate 500 g/ha, Preemergence",0
same,"Plant response rating, Redroot pigweed",[10]; [15],9
same,Redroot pigweed plant response rating,"[10]; Rate 62 g/ha, Postemergence",9
same,Redroot pigweed plant response rating,"[10]; Rate 125 g/ha, Postemergence",10
same,"Plant response rating, Redroot pigweed","[10]; Rate 125 g/ha, Preemergence",10
same,"Plant response rating, Redroot pigweed","[10]; Rate 250 g/ha, Postemergence",10
same,"Plant response rating, Redroot pigweed","[10]; Rate 250 g/ha, Preemergence",10
same,"Plant response rating, Redroot pigweed","[10]; Rate 500 g/ha, Postemergence",10
same,"Plant response rating, Redroot pigweed","[10]; Rate 500 g/ha, Preemergence",10
same,"Plant response rating, Velvetleaf",[11]; [15],8
same,Velvetleaf plant response rating,"[11]; Rate 62 g/ha, Postemergence",8
same,Velvetleaf plant response rating,"[11]; Rate 125 g/ha, Postemergence",8
same,"Plant response rating, Velvetleaf","[11]; Rate 125 g/ha, Preemergence",9
same,"Plant response rating, Velvetleaf","[11]; Rate 250 g/ha, Postemergence",8
same,"Plant response rating, Velvetleaf","[11]; Rate 250 g/ha, Preemergence",10
same,"Plant response rating, Velvetleaf","[11]; Rate 500 g/ha, Postemergence",8
same,"Plant response rating, Velvetleaf","[11]; Rate 500 g/ha, Preemergence",10
same,"Plant response rating, Wild oats",[12]; [15],3
same,Wild oats plant response rating,"[12]; Rate 62 g/ha, Postemergence",5
same,Wild oats plant response rating,"[12]; Rate 125 g/ha, Postemergence",7
same,"Plant response rating, Wild oats","[12]; Rate 125 g/ha, Preemergence",5
same,"Plant response rating, Wild oats","[12]; Rate 250 g/ha, Postemergence",8
same,"Plant response rating, Wild oats","[12]; Rate 250 g/ha, Preemergence",6
same,"Plant response rating, Wild oats","[12]; Rate 500 g/ha, Postemergence",8
same,"Plant response rating, Wild oats","[12]; Rate 500 g/ha, Preemergence",9
same,"Plant response rating, Giant foxtail",[13]; [15],7
same,Giant foxtail plant response rating,"[13]; Rate 62 g/ha, Postemergence",5
same,Giant foxtail plant response rating,"[13]; Rate 125 g/ha, Postemergence",6
same,"Plant response rating, Giant foxtail","[13]; Rate 125 g/ha, Preemergence",9
same,"Plant response rating, Giant foxtail","[13]; Rate 250 g/ha, Postemergence",9
same,"Plant response rating, Giant foxtail","[13]; Rate 250 g/ha, Preemergence",10
same,"Plant response rating, Giant foxtail","[13]; Rate 500 g/ha, Postemergence",9
same,"Plant response rating, Giant foxtail","[13]; Rate 500 g/ha, Preemergence",10
same,B. signalgrass plant response rating,"[14]; Rate 62 g/ha, Postemergence",5
same,B. signalgrass plant response rating,"[14]; Rate 62 g/ha, Preemergence",8
same,B. signalgrass plant response rating,"[14]; Rate 125 g/ha, Postemergence",7
same,"Plant response rating, B. signalgrass","[14]; Rate 125 g/ha, Preemergence",9
same,"Plant response rating, B. signalgrass","[14]; Rate 250 g/ha, Postemergence",7
same,"Plant response rating, B. signalgrass","[14]; Rate 250 g/ha, Preemergence",10
same,"Plant response rating, B. signalgrass","[14]; Rate 500 g/ha, Postemergence",9
same,"Plant response rating, B. signalgrass","[14]; Rate 500 g/ha, Preemergence",10
